Measurements taken from patent publication EP0997459A1, “Intermediates for preparing retroviral protease inhibiting compounds” (priority 1990, dated 1992).
Read-outs that look alike come from different tables or passages of the source.

Legend:
HIV-1 protease = HIV-1 protease (Human immunodeficiency virus type 1 group M subtype B, UniProt P04585); assay: Fluorogenic assay for screening inhibitors of HIV protease; assay type: biochemical; details: read-out: Percent Inhibition
Protocol: Fluorogenic Assay for Screening Inhibitors of HIV Protease
The inhibitory potency of the compounds of the invention can be determined by the following method.
A compound of the invention is dissolved in DMSO and a small aliquot further diluted with DMSO to 100 times the final concentration desired for testing. The reaction is carried out in a 6 X 50 mm tube in a total volume of 300 microliters. The final concentrations of the components in the reaction buffer are: 125 mM sodium acetate, 1 M sodium chloride, 5 mM dithiothreitol, 0.5 mg/ml bovine serum albumin, 1.3 µM fluorogenic substrate, 2% (v/v) dimethylsulfoxide, pH 4.5. After addition of inhibitor, the reaction mixture is placed in the fluorometer cell holder and incubated at 30°C for several minutes. The reaction is initiated by the addition of a small aliquot of cold HIV protease. The fluorescence intensity (excitation 340 nm, emmision 490 nM) is recorded as a function of time. The reaction rate is determined for the first six to eight minutes. The observed rate is directly proportional to the moles of substrate cleaved per unit time. The percent inhibition is 100 X (1 - (rate in presence of inhibitor)/(rate in absence of inhibitor)).

HIV-13B = assay: Antiviral activity: inhibition of the cytopathic effect of HIV in MT4 cells (procedure of Pauwels et al.); assay type: cell-based; details: Human immunodeficiency virus 1, MT4
Text: (§1) The anti-HIV activity of the compounds of the invention can be determined in MT4 cells according to the procedure of Pauwels et. al. (J. Virol. Methods 1988, 20, 309).

[1] = Cell viability (LC50) in MT4 cells in the antiviral test; assay type: cell-based; details: human, concentration at which 50% of the cells remain viable
Text: as §1

[2] = Inhibitor Concentration 0.5 nanomolar

Compound	IC50 (HIV-13B)	further results
CC(C)[C@H](NC(=O)OCc1ccccn1)C(=O)N[C@@H](Cc1ccccc1)C[C@H](O)[C@H](Cc1ccccc1)NC(=O)OCc1cccnc1 [Example 40, (2S,3S,5S)-5-(N-(N-((2-Pyridinyl)methoxycarbonyl)valinyl)amino)-2-(N-((3-pyridinyl)methoxycarbonyl)amino)-1,6-diphenyl-3-hydroxyhexane]	0.23 to 0.55 µM	inhibition at 0.0005 µM (HIV-1 protease): 61%; CC50 [1]: 64 µM
COc1ccc(COC(=O)N[C@H](C(=O)N[C@@H](Cc2ccccc2)C[C@H](O)[C@H](Cc2ccccc2)NC(=O)[C@@H](NC(=O)OCc2ccc(OC)nc2)C(C)C)C(C)C)cn1 [Example 315]	0.003 to 0.005 µM	inhibition at 0.0005 µM (HIV-1 protease): […]
Cc1cccc(COC(=O)N[C@H](C(=O)N[C@@H](Cc2ccccc2)C(=O)C(F)(F)[C@H](Cc2ccccc2)NC(=O)[C@@H](NC(=O)OCc2cccc(C)n2)C(C)C)C(C)C)n1 [Example 306]	0.007 to 0.019 µM	inhibition at 0.0005 µM (HIV-1 protease; [2]): 88%
COc1ccc(CN(C)C(=O)N[C@H](C(=O)N[C@@H](Cc2ccccc2)C[C@H](O)[C@H](Cc2ccccc2)NC(=O)OCc2cccnc2)C(C)C)cn1 [Example 312]	0.058 to 0.077 µM	
Cc1cccc(CN(C)C(=O)N[C@H](C(=O)N[C@@H](Cc2ccccc2)[C@@H](O)C[C@H](Cc2ccccc2)NC(=O)OCc2cccnc2)C(C)C)n1 [Example 297, (2S,3S-5S)-2-(N-(N-((N-Methyl-N-((6-methyl-2-pyridinyl)methyl)amino)carbonyl)valinyl)amino)-5-(N-((3-pyridinyl)-methoxycarbonyl)amino)-1,6-diphenyl-3-hydroxyhexane]	0.31 to 0.35 µM	
Cc1cncc(CN(C)C(=O)N[C@H](C(=O)N[C@@H](Cc2ccccc2)C[C@H](O)[C@H](Cc2ccccc2)NC(=O)OCc2cccnc2)C(C)C)c1 [Example 314]	0.098 to 0.144 µM	
CC(C)[C@H](NC(=O)N(C)Cc1ccccn1)C(=O)N[C@@H](Cc1ccccc1)C[C@H](O)[C@H](Cc1ccccc1)NC(=O)OCc1cncnc1 [Example 320, (2S,3S,5S)-5-(N-(N-((N-Methyl-N-((2-pyridinyl)methyl)amino)carbonyl)valinyl)amino)-2-(N-((5-pyrimidinyl)methoxycarbonyl)amino)-1,6-diphenyl-3-hydroxyhexane]	0.4 to 0.5 µM	
Cc1cccc(COC(=O)N[C@H](C(=O)N[C@@H](Cc2ccccc2)C[C@H](O)[C@H](Cc2ccccc2)NC(=O)OCc2cccnc2)C(C)C)n1 [Example 290, (2S,3S,5S)-2-(N-[(pyridin-3-yl)methoxycarbonyl]amino)-5-(N-[(6-methylpyridin-2-yl)methoxycarbonyl-valyl]amino)-1,6-diphenyl-3-hydroxyhexane]	0.026 to 0.075 µM	
CC(C)[C@H](NC(=O)OCc1ccccn1)C(=O)N[C@@H](Cc1ccccc1)C[C@H](O)[C@H](Cc1ccccc1)NC(=O)OCc1cncnc1 [Example 321, (2S,3S,5S)-5-(N-(N-((2-Pyridinyl)methoxycarbonyl)valinyl)amino)-2-(N-((5-pyrimidinyl)methoxycarbonyl)amino)-1,6-diphenyl-3-hydroxyhexane]	0.14 to 0.19 µM	inhibition at 0.0005 µM (HIV-1 protease): 64%
Cc1cccc(COC(=O)N[C@H](C(=O)N[C@@H](Cc2ccccc2)[C@@H](O)C[C@H](Cc2ccccc2)NC(=O)OCc2ccoc2)C(C)C)n1 [Example 322B, (2S,3S,5S)-2-(N-(N-(2-(6-Methylpyridinyl)methoxycarbonyl)valinyl)amino)-5-(N-((3-furyl)methoxycarbonyl)amino)-1,6-diphenyl-3-hydroxyhexane]	0.086 to 0.094 µM	
CC(C)[C@H](NC(=O)N(C)Cc1ccccn1)C(=O)N[C@@H](Cc1ccccc1)C[C@H](O)[C@H](Cc1ccccc1)NC(=O)OCc1cccnc1 [Example 38, (2S,3S,5S)-5-(N-(N-((N-Methyl-N-((2-pyridinyl)methyl)amino)carbonyl)valinyl)amino)-2-(N-((3-pyridinyl)methoxycarbonyl)amino)-1,6-diphenyl-3-hydroxyhexane]	0.55 to 0.61 µM	
COc1ccc(COC(=O)N[C@H](C(=O)N[C@@H](Cc2ccccc2)C[C@H](O)[C@H](Cc2ccccc2)NC(=O)OCc2cccnc2)C(C)C)cn1 [Example 310]	0.013 to 0.025 µM	
O=C(N[C@@H](Cc1ccccc1)C[C@H](O)[C@H](Cc1ccccc1)NC(=O)OCc1ccno1)OCc1ccno1 [Example 334B, (2S,3S,5S)-2,5-Bis-(N-(isoxazol-5-ylmethoxycarbonyl)amino)-1,6-diphenyl-3-hydroxyhexane]	0.74 to 1.6 µM	inhibition at 0.001 µM (HIV-1 protease): 56%; CC50 [1]: 91 µM
CC(C)[C@H](NC(=O)OCc1ccccn1)C(=O)N[C@@H](Cc1ccccc1)[C@@H](O)C[C@H](Cc1ccccc1)NC(=O)OCc1cncnc1 [Example 319, (2S,3S,5S)-2-(N-(N-((2-Pyridinyl)methoxycarbonyl)valinyl)amino)-5-(N-((5-pyrimidinyl)methoxycarbonyl)amino)-1,6-diphenyl-3-hydroxyhexane]	0.21 to 0.29 µM	
CC(C)[C@H](NC(=O)N(C)Cc1ccccn1)C(=O)N[C@@H](Cc1ccccc1)[C@@H](O)C[C@H](Cc1ccccc1)NC(=O)OCc1cccnc1 [Example 37C, (2S,3S,5S)-2-(N-(N-((N-Methyl-N-((2-pyridinyl)-methyl)amino)carbonyl)valinyl)amino)-5-(N-((3-pyridinyl)methoxycarbonyl)amino)-1,6-diphenyl-3-hydroxyhexane]	0.84 to 1.44 µM	inhibition at 0.001 µM (HIV-1 protease): 61%
O=C(N[C@@H](Cc1ccccc1)C[C@H](O)[C@H](Cc1ccccc1)NC(=O)OCc1cccnc1)OCc1cccnc1 [Example 174]	0.14 to 0.23 µM	inhibition at 0.0005 µM (HIV-1 protease; [2]): 51%
Cc1cnc(COC(=O)N[C@H](C(=O)N[C@@H](Cc2ccccc2)[C@@H](O)C[C@H](Cc2ccccc2)NC(=O)OCc2cccnc2)C(C)C)cn1 [Example 307]	0.16 to 0.26 µM	
Cc1cncc(CN(C)C(=O)N[C@H](C(=O)N[C@@H](Cc2ccccc2)[C@@H](O)C[C@H](Cc2ccccc2)NC(=O)OCc2cccnc2)C(C)C)c1 [Example 313, (2S,3S,5S)-2-(N-(N-((N-Methyl-N-((5-methyl-3-pyridinyl)methyl)amino)carbonyl)valinyl)amino)-5-(N-((3-pyridinyl)methoxycarbonyl)amino)-1,6-diphenyl-3-hydroxyhexane]	0.46 to 0.5 µM	
CC(C)[C@H](NC(=O)OCc1ccccn1)C(=O)N[C@@H](Cc1ccccc1)[C@@H](O)C[C@H](Cc1ccccc1)NC(=O)OCc1cccnc1 [Example 39, (2S,3S,5S)-2-(N-(N-((2-Pyridinyl)methoxycarbonyl)valinyl)amino)-5-(N-((3-pyridinyl)methoxycarbonyl)amino)-1,6-diphenyl-3-hydroxyhexane]	0.13 to 0.25 µM	
CC[C@H](C)[C@H](NC(=O)N(C)Cc1ccccn1)C(=O)N[C@@H](Cc1ccccc1)C[C@H](O)[C@H](Cc1ccccc1)NC(=O)OCc1cccnc1 [Example 171]	0.38 to 0.55 µM	inhibition at 0.0005 µM (HIV-1 protease; [2]): 62%
Cc1cnc(COC(=O)N[C@H](C(=O)N[C@@H](Cc2ccccc2)C[C@H](O)[C@H](Cc2ccccc2)NC(=O)OCc2cccnc2)C(C)C)cn1 [Example 308]	0.077 to 0.124 µM	
COc1ccc(CN(C)C(=O)N[C@H](C(=O)N[C@@H](Cc2ccccc2)[C@@H](O)C[C@H](Cc2ccccc2)NC(=O)OCc2cccnc2)C(C)C)cn1 [Example 311, (2S,3S,5S)-2-(N-(N-((N-Methyl-N-((6-methoxy-3-pyridinyl)methyl)amino)carbonyl)valinyl)amino)-5-(N-((3-pyridinyl)methoxycarbonyl)amino)-1,6-diphenyl-3-hydroxyhexane]	0.058 to 0.067 µM	
Cc1cccc(COC(=O)N[C@H](C(=O)N[C@@H](Cc2ccccc2)[C@@H](O)C(F)(F)[C@H](Cc2ccccc2)NC(=O)[C@@H](NC(=O)OCc2cccc(C)n2)C(C)C)C(C)C)n1 [Example 305]	0.005 to 0.017 µM	inhibition at 0.0005 µM (HIV-1 protease; [2]): 91%
Cc1cccc(CN(C)C(=O)N[C@H](C(=O)N[C@@H](Cc2ccccc2)C[C@H](O)[C@H](Cc2ccccc2)NC(=O)OCc2cccnc2)C(C)C)n1 [Example 298]	0.22 to 0.29 µM	
CC(C)[C@H](NC(=O)OCc1ccc2ccccc2n1)C(=O)N[C@@H](Cc1ccccc1)[C@@H](O)C[C@H](Cc1ccccc1)NC(=O)OCc1cccnc1 [Example 326, (2S,3S,5S)-2-(N-(N-((2-Ouinolinyl)methoxycarbonyl)valinyl)amino)-5-(N-((3-pyridinyl)methoxycarbonyl)amino)-1,6-diphenyl-3-hydroxyhexane]	0.053 to 0.086 µM	inhibition at 0.0005 µM (HIV-1 protease): 66%; CC50 [1]: 27 µM
CC(C)[C@H](NC(=O)OCc1ccc2ccccc2n1)C(=O)N[C@@H](Cc1ccccc1)C[C@H](O)[C@H](Cc1ccccc1)NC(=O)OCc1cccnc1 [Example 327, (2S,3S,5S)-5-(N-(N-((2-Ouinolinyl)methoxycarbonyl)valinyl)amino)-2-(N-((3-pyridinyl)methoxycarbonyl)amino)-1,6-diphenyl-3-hydroxyhexane]	0.034 to 0.064 µM	inhibition at 0.0005 µM (HIV-1 protease): 69%; CC50 [1]: 84 µM
